Patent US20050124683A1, “HIV protease inhibitors, compositions containing the same, their pharmaceutical uses and materials for their synthesis” (priority 2003, published 2005)
Like-named read-outs stand apart in the source and are kept apart here.

Tests used:
HIV-1 protease = target: T1, HIV-1 protease (Human immunodeficiency virus type 1 group M subtype B, UniProt P04585, Q495S); assay: HIV-1 Protease RET assay (Ki, resonance energy transfer); assay type: biochemical; details: Q7S mutant HIV-1 protease
T1 construct: made in house
Description: Ki's for the inhibitors of HIV-1 protease were determined using a resonance energy transfer (RET) assay. […] This enzyme is first partially purified as inclusion bodies from cell lysate. It is then solublized in 8M urea and passed through a Q-Sepharose column (Pharmacia) for further purification. To refold this protein, samples containing Q7S is dialyzed into 50 mM sodium phosphate pH 7.0, 50 mM NaCl, 10 mM DTT, and 10% glycerol.
The commercially available peptide substrate (Molecular Probes Cat. # H-2930) RE(EDANS)SQNYPIVQK(DABCYL)R is used to assess activity and Ki's. This peptide is cleaved quantitatively by HIV-1 Pr at the Tyr-Pro bond. The EDANS fluorophore absorbs at 340 nm and emits at 490 nm. The reaction is carried out in a 96 well plate in a total volume of 100 µL and is run for 12 minutes at 37C under steady-state conditions with 5 µM substrate and 2 nM active dimer enzyme concentration. The literature value Km for this substrate and enzyme is 103+/−8 μM (See Matayoshi, et al., “Novel Fluorogenic Substrates for Assaying Retroviral Proteases by Resonance Energy Transfer,” Science 247, 954 (1990)). The buffer for this reaction is 0.1M sodium acetate pH 4.8, 1M NaCl, 1 mM EDTA, 5 mM dithiothreitol, 10% dimethyl sulfoxide and 1 mg/ml bovine serum albumin. Inhibition curves are fit using the Morrison tight binding equation.

HIV-1 = assay: Antiviral EC50 in HIV-infected T-cell lines (CPE inhibition / susceptibility assays); assay type: cell-based; details: Human immunodeficiency virus 1, T-cell
Description: T-cell lines, CEM-SS, and MT-2, and viruses HIV-1 RF and HIV-1 NL4-3 (pNL4-3) were obtained from the National Institutes of Health (AIDS Research and Reference Reagent Program, Bethesda, MD).
The ability of compounds to protect cells against HIV infection was measured by the […] dye reduction method, essentially as described (See Pauwels, R. Balzarini, J. Baba, M. Snoeck, R. Schols, D. Herdewijn, P. Desmyter, J. and De Clercq, E. 1988, “Rapid and automated tetrazolium-based colorimetric assay for the detection of anti-HIV compounds,”. J Virol. Methods., 20: 309-321 and Weislow, O. S. Kiser, R. Fine, D. L. Bader, J. Shoemaker, R. H. and Boyd, M. R. 1989. “New soluble-formazan assay for HIV-1 cytopathic effects: application to high-flux screening of synthetic and natural products for AIDS-antiviral activity”. J. Natl. Cancer Inst. 81:577-586). Subject cells were infected with test virus at an moi of 0.025 to 0.819 or mock infected with medium only and added at 2×10^4 cells per well into 96 well plates containing half-log dilutions of test compounds. Six days later, 50 μl of XTT (1 mg/ml XTT tetrazolium, […] phenazine methosulfate) was added to the wells and the plate was reincubated for four hours. Viability, as determined by the amount of XTT formazan produced, was quantified spectrophotometrically by absorbance at 450 nm. Data from CPE assays were expressed as the percent of formazan produced in compound-treated cells compared to formazan produced in wells of uninfected, compound-free cells. The fifty percent effective concentration (EC50) was calculated as the concentration of compound that effected an increase in the percentage of formazan production in infected, compound-treated cells to 50% of that produced by uninfected, compound-free cells. The 50% cytotoxicity concentration (CC50) was calculated as the concentration of compound that decreased the percentage of formazan produced in uninfected, compound-treated cells to 50% of that produced in uninfected, compound-free cells. The therapeutic index was calculated by dividing the cytotoxicity (CC50) by the antiviral activity (EC50).
Compounds were tested in phenotypic susceptibility assays at Virologic, Inc., (See Petropoulos C. J., Parkin N. T., Limoli K. L., Lie Y. S., Wrin T., Huang W., Tian H., Smith D., Winslow G. A., Capon D J, Whitcomb J M. 2000, “A novel phenotypic drug susceptibility assay for human immunodeficiency virus type 1,” Antimicrob Agents Chemother 44(4):920-928) or using the assay described here. MT-2 cells were infected with either HIV-1 NL4-3 or HIV-1 NL4-3(I84V/L90M) and incubated in the presence of serial 0.5 log dilutions of test compounds. Three days later, culture supernatants were collected and virus production, as determined by p24 ELISA, was assayed. Percent inhibition was calculated as p24 concentration in compound-treated samples as compared to infected, compound-free controls. Inhibition of viral replication is determined by measuring reduction in HIV p24 present in the culture supernatant, using a Beckman-Coulter p24 HIV-1 Ag EIA kit and following the supplied protocol. Absorbance is read on a MRX microplate reader (Dynex Technologies). The EC50 was calculated as the concentration of compound that effected a decrease in the p24 production by infected, compound-treated cells to 50% of that produced by infected, compound-free cells.

[1] = read-out: Ave. EC50, average, unit inferred
[2] = read-out: EC50 (wt) (nm), wt virus

Structure (SMILES) | Ki (HIV-1 protease; average, read-out: Ave. Ki) | EC50 (HIV-1; [1]) | Ki (HIV-1 protease; read-out: Ki (nm)) | EC50 (HIV-1; [2])
CCNC(=O)[C@H]1N(C(=O)[C@@H](O)[C@H](Cc2ccccc2)NC(=O)c2cc(C)cc(O)c2C)CC(F)(F)C1(C)C [Example D17, (S)-4,4-Difluoro-1-[(2S,3S)-2-hydroxy-3-(3-hydroxy-2,5-dimethyl-benzoylamino)-4-phenyl-butyryl]-3,3-dimethyl-pyrrolidine-2-carboxylic acid ethylamide] | < 0.1 nM | 66 nM | – | –
Cc1ccccc1CNC(=O)[C@H]1N(C(=O)[C@@H](O)[C@H](Cc2ccccc2)NC(=O)c2cccc(O)c2C)CC(C)(O)C1(C)C (stereo partly shown) | – | – | < 0.1 nM | 33 nM
C=CCNC(=O)[C@H]1N(C(=O)[C@@H](O)[C@H](Cc2ccccc2)NC(=O)c2cccc(O)c2C)CC(O)C1(C)C (stereo partly shown) | – | – | 3.6 nM | 470 nM
Cc1c(O)cccc1C(=O)N[C@@H](Cc1cccc(F)c1)[C@H](O)C(=O)N1CC(F)(F)C(C)(C)C1C(=O)NCC(C)C (stereo partly shown) | – | – | < 0.1 nM | 13 nM
C=CCNC(=O)[C@H]1N(C(=O)[C@@H](O)[C@H](Cc2ccccc2)NC(=O)c2cc(C)cc(O)c2C)CC(F)(F)C1(C)C [Example D13, (S)-4,4-Difluoro-1-[(2S,3S)-2-hydroxy-3-(3-hydroxy-2,5-dimethyl-benzoylamino)-4-phenyl-butyryl]-3,3-dimethyl-pyrrolidine-2-carboxylic acid allylamide] | < 0.1 nM | 17 nM | – | –
Cc1c(O)cccc1C(=O)N[C@@H](Cc1ccccc1)[C@H](O)C(=O)N1CC(O)C(C)(C)[C@H]1C(=O)NCC(C)C (stereo partly shown) | – | – | 0.7 nM | 450 nM
Cc1cc(O)c(C)c(C(=O)N[C@@H](Cc2ccccc2)[C@H](O)C(=O)N2CC(F)(F)C(C)(C)[C@H]2C(=O)NCc2ccccn2)c1 | – | – | < 0.1 nM | 61 nM
Cc1cc(O)c(C)c(C(=O)N[C@@H](Cc2ccccc2)[C@H](O)C(=O)N2CC(F)(F)C(C)(C)[C@H]2C(=O)NCc2ccncc2C)c1 | – | – | < 0.1 nM | 34 nM
Cc1cc(O)c(C)c(C(=O)N[C@@H](Cc2ccccc2)[C@H](O)C(=O)N2CC(F)(F)C(C)(C)[C@H]2C(=O)NCC(F)(F)F)c1 [Example D16, (S)-4,4-Difluoro-1-[(2S,3S)-2-hydroxy-3-(3-hydroxy-2,5-dimethyl-benzoylamino)-4-phenyl-butyryl]-3,3-dimethyl-pyrrolidine-2-carboxylic acid (2,2,2-trifluoro-ethyl)-amide] | < 0.1 nM | 18 nM | – | –
Cc1cnccc1CNC(=O)C1N(C(=O)[C@@H](O)[C@H](Cc2ccccc2)NC(=O)c2cccc(O)c2C)CC(F)(F)C1(C)C (stereo partly shown) | – | – | < 0.1 nM | 8 nM
CCC(C)NC(=O)[C@H]1N(C(=O)[C@@H](O)[C@H](Cc2ccccc2)NC(=O)c2cccc(O)c2C)CC(F)(F)C1(C)C (stereo partly shown) | – | – | < 0.1 nM | 31 nM
Cc1cc(O)c(C)c(C(=O)N[C@@H](Cc2ccccc2)[C@H](O)C(=O)N2COC(C)(C)[C@H]2C(=O)NC2CCc3ccccc32)c1 (stereo partly shown) | – | – | < 0.1 nM | 61 nM
C=CCNC(=O)[C@H]1N(C(=O)[C@@H](O)[C@H](Cc2cccc(C(F)(F)F)c2)NC(=O)c2cccc(O)c2C)CC(F)(F)C1(C)C | – | – | < 0.1 nM | 42 nM
CC[C@H](C)CNC(=O)[C@H]1N(C(=O)[C@@H](O)[C@H](Cc2ccccc2)NC(=O)c2cccc(O)c2C)CC(F)(F)C1(C)C [Example D18, (S)-4,4-Difluoro-1-[(2S,3S)-2-hydroxy-3-(3-hydroxy-2-methyl-benzoylamino)-4-phenyl-butyryl]-3,3-dimethyl-pyrrolidine-2-carboxylic acid ((2S)-2-methyl-butyl)-amide] | < 0.1 nM | 10 nM | – | –
C=CCNC(=O)C1N(C(=O)[C@@H](O)[C@H](Cc2cccc(F)c2)NC(=O)c2cccc(O)c2C)CC(F)(F)C1(C)C (stereo partly shown) [drawing 101] | – | – | < 0.1 nM | 16 nM
CCNC(=O)[C@H]1N(C(=O)[C@@H](O)[C@H](Cc2ccccc2)NC(=O)c2cc(C)cc(O)c2C)CC(F)(F)C1(C)C [drawing 141] | – | – | < 0.1 nM | 37 nM
Cc1c(O)cccc1C(=O)N[C@@H](Cc1cccc(F)c1)[C@H](O)C(=O)N1CC(F)(F)C(C)(C)[C@H]1C(=O)NCC(C)C [Example D11, (S)-4,4-Difluoro-1-[(2S,3S)-4-(3-fluoro-phenyl)-2-hydroxy-3-(3-hydroxy-2-methyl-benzoylamino)-butyryl]-3,3-dimethyl-pyrrolidine-2-carboxylic acid isobutyl-amide] | < 0.1 nM | 13 nM | – | –
C=CCNC(=O)[C@H]1N(C(=O)[C@@H](O)[C@H](Cc2ccccc2)NC(=O)c2cccc3c2CCN3)CC(F)(F)C1(C)C | – | – | < 0.1 nM | 16 nM
Cc1ccccc1CNC(=O)[C@H]1N(C(=O)[C@@H](O)[C@H](Cc2ccccc2)NC(=O)c2cccc(O)c2C)CC(O)C1(C)C (stereo partly shown) | – | – | < 0.1 nM | 140 nM
CCC(C)NC(=O)C1N(C(=O)C(O)C(Cc2ccccc2)NC(=O)c2cc(C)cc(O)c2C)CC(F)(F)C1(C)C (stereo not shown) | – | – | < 0.1 nM | 16 nM
Cc1c(O)cccc1C(=O)N[C@@H](Cc1cccc(F)c1)[C@H](O)C(=O)N1CC(F)(F)C(C)[C@H]1C(=O)NCC(F)(F)F (stereo partly shown) | – | – | < 0.1 nM | 10 nM
CC[C@@H](COC)NC(=O)[C@H]1N(C(=O)[C@@H](O)[C@H](Cc2ccccc2)NC(=O)c2cc(C)cc(O)c2C)CC(F)(F)C1(C)C | – | – | < 0.1 nM | 30 nM
CCCNC(=O)[C@H]1N(C(=O)[C@@H](O)[C@H](Cc2ccccc2)NC(=O)c2cc(C)cc(O)c2C)CC(F)(F)C1(C)C [Example D14, (S)-4,4-Difluoro-1-1-[(2S,3S)-2-hydroxy-3-(3-hydroxy-2,5-dimethyl-benzoylamino)-4-phenyl-butyryl]-3,3-dimethyl-pyrrolidine-2-carboxylic acid propylamide] | – | 9 nM | – | –
Cc1cc(O)c(C)c(C(=O)N[C@@H](Cc2ccccc2)[C@H](O)C(=O)N2CC(F)(F)C(C)(C)[C@H]2C(=O)NCC(C)C)c1 [Example D15, (S)-4,4-Difluoro-1-1-[(2S,3S)-2-hydroxy-3-(3-hydroxy-2,5-dimethyl-benzoylamino)-4-phenyl-butyryl]-3,3-dimethyl-pyrrolidine-2-carboxylic acid isobutyl-amide] | – | 11 nM | – | –
